Assay results reported in ChEMBL document CHEMBL1909046, “DrugMatrix in vitro pharmacology data”.

What was measured:
[1] = DRUGMATRIX: Interleukin IL-1 radioligand binding (ligand: [125I] interleukin 1beta); assay type: cell membranes, Membrane; conditions: nih3t3; Not Active = under 50% inhibition at 10 µM
Adenosine receptor A2a = Adenosine receptor A2a (Homo sapiens, UniProt P29274); assay: DRUGMATRIX: Adenosine A2A radioligand binding (ligand: […]); assay type: cell membranes, HEK293, Membrane; conditions: hek293; Not Active = under 50% inhibition at 10 µM
Sequence of Adenosine receptor A2a (P29274 whole entry): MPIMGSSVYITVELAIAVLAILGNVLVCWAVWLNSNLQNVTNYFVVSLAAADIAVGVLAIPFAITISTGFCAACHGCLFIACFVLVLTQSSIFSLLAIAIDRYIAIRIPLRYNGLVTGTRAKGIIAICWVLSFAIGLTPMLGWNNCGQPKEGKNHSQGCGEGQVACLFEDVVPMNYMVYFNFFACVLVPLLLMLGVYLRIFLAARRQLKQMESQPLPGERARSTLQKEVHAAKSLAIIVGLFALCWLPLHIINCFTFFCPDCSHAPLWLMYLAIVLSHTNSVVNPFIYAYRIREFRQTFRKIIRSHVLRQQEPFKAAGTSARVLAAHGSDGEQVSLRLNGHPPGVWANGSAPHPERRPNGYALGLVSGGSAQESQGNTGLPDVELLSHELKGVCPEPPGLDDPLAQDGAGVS

Substance-P receptor = Substance-P receptor (Homo sapiens, UniProt P25103); assay type: cell membranes, CHO, Membrane; conditions: cho; also: in other assays of this panel Not Active means under 50% inhibition at 10 µM
Sequence of Substance-P receptor (P25103 whole entry): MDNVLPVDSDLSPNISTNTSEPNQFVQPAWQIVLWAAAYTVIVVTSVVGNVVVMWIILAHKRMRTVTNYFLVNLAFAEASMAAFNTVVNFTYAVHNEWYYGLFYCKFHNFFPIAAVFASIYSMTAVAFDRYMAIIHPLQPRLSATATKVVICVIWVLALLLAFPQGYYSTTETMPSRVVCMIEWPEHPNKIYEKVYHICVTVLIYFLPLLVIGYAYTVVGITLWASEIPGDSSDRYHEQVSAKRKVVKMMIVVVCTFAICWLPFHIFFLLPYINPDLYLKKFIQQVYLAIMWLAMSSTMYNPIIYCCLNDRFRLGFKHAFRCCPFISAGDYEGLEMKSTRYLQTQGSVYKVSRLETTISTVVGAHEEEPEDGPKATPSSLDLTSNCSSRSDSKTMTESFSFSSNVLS

[2] = DRUGMATRIX: Phosphodiesterase PDE3 enzyme inhibition (substrate: [3H]cAMP + cAMP); assay type: tissue-based, Homo sapiens; conditions: platelet; Not Active = under 50% inhibition at 10 µM
[3] = DRUGMATRIX: Leukotriene, BLT (LTB4) radioligand binding (ligand: [3H]LTB4); assay type: cell membranes, Membrane; conditions: u-937; Not Active = under 50% inhibition at 10 µM
[4] = DRUGMATRIX: Calcium Channel Type L, Dihydropyridine radioligand binding (ligand: [3H] Nitrendipine); assay type: cell membranes, Rattus norvegicus, Wistar, Cerebral cortex, Membrane; conditions: Not Active = under 50% inhibition at 10 µM
Glucocorticoid receptor = target: T1, Glucocorticoid receptor (Homo sapiens, UniProt P04150); conditions: hela s3; also: in other assays of this panel Not Active means under 50% inhibition at 10 µM
T1 sequence (P04150 whole entry): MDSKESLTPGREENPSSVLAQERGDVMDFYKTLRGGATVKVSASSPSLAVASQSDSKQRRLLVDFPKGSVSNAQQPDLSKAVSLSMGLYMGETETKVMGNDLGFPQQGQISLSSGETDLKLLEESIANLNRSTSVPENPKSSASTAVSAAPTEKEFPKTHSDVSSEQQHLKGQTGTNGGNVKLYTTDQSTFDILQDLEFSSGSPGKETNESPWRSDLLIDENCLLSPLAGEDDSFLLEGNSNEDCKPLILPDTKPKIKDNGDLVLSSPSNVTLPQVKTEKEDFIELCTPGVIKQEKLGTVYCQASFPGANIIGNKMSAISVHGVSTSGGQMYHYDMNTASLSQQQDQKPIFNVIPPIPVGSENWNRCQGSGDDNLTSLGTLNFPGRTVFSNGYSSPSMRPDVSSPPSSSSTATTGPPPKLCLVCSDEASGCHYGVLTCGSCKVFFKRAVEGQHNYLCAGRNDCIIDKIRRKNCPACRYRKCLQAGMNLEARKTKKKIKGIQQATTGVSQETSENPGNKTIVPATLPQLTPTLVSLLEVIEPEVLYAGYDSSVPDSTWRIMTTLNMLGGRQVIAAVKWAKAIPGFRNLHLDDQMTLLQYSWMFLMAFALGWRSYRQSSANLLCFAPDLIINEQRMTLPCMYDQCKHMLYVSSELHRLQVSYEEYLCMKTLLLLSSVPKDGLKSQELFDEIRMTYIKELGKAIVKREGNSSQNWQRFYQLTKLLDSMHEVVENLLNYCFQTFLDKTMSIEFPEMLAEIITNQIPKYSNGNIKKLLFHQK

[5] = target: T2, Amine oxidase [flavin-containing] A (Homo sapiens, UniProt P21397); assay: DRUGMATRIX: Monoamine Oxidase MAO-A enzyme inhibition (substrate: Kynuramine); set-up: species or system BTI-TN-5B1-4; conditions: bti-tn-5b1-4; Not Active = under 50% inhibition at 10 µM
T2 sequence (P21397 whole entry): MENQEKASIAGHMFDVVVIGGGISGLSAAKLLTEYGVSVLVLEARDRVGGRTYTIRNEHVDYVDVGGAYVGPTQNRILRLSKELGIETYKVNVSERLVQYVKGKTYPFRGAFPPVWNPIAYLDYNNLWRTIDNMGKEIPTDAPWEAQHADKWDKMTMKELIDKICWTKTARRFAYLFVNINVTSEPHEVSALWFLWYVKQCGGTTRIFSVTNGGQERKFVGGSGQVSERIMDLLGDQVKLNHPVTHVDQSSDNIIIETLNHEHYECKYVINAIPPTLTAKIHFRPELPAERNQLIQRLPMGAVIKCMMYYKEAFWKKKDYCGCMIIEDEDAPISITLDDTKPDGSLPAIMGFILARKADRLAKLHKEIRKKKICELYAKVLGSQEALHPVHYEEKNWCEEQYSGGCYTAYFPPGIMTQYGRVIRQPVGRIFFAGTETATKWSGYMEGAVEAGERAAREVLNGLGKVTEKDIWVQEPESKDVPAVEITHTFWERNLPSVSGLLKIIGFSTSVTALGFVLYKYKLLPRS

[6] = target: Delta-type opioid receptor (Homo sapiens, UniProt P41143); assay type: cell membranes, HEK293, Membrane; conditions: hek293; also: in other assays of this panel Not Active means under 50% inhibition at 10 µM
Sequence of Delta-type opioid receptor (P41143 whole entry): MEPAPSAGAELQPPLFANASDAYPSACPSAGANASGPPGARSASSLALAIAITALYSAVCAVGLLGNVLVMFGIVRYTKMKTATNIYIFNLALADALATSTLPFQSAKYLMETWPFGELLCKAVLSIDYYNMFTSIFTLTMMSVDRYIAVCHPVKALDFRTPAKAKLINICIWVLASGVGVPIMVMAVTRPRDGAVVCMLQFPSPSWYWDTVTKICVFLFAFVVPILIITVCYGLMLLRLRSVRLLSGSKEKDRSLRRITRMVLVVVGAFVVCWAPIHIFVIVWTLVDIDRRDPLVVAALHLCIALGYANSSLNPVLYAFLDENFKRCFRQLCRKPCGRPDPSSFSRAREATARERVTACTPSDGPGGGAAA

[7] = target: Kappa-type opioid receptor (Homo sapiens, UniProt P41145); assay: DRUGMATRIX: Opiate kappa (OP2, KOP) radioligand binding (ligand: [3H] Diprenorphine); assay type: cell membranes, HEK293, Membrane; conditions: hek293; Not Active = under 50% inhibition at 10 µM
Sequence of Kappa-type opioid receptor (P41145 whole entry): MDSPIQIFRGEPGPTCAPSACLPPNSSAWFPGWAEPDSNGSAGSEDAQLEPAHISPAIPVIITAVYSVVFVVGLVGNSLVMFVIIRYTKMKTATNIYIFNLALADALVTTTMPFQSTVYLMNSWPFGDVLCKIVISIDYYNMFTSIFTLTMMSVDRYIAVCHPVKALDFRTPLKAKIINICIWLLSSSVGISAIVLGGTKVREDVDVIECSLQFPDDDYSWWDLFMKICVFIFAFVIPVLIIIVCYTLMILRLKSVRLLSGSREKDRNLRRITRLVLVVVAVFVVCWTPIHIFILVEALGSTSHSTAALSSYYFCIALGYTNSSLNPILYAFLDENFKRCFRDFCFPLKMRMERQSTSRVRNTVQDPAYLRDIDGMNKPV

[8] = target: T3, C-X-C chemokine receptor type 2 (Homo sapiens, UniProt P25025); assay type: cell membranes, Membrane; conditions: cho-k1; also: in other assays of this panel Not Active means under 50% inhibition at 10 µM
T3 sequence (P25025 whole entry): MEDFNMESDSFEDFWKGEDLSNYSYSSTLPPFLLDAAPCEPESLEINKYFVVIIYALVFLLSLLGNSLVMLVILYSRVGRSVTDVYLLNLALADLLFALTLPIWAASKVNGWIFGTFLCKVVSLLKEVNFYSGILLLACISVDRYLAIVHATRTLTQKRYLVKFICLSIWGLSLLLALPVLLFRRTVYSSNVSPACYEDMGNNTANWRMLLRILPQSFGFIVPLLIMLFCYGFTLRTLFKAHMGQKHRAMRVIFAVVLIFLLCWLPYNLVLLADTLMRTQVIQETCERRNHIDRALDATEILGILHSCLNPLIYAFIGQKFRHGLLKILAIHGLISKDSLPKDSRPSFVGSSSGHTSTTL

[9] = DRUGMATRIX: ATPase, Na+/K+ enzyme inhibition (substrate: ATP); assay type: tissue-based, Sus scrofa, Heart; conditions: Not Active = under 50% inhibition at 10 µM
[10] = DRUGMATRIX: Phosphodiesterase PDE4 enzyme inhibition (substrate: [3H]cAMP + cAMP); conditions: u-937; Not Active = under 50% inhibition at 10 µM

CCOC(=O)OC(C)OC1=C(C(=O)Nc2ccccn2)N(C)S(=O)(=O)c2ccccc21 (stereo unspecified) [AMPIROXICAM]
Not Active: IC50 [1] | Ki [1] | IC50 (Adenosine receptor A2a) | IC50 (Substance-P receptor) | IC50 [2] | Ki [2] | IC50 [3] | Ki [3] | IC50 [4] | Ki [4] | IC50 (Glucocorticoid receptor) | IC50 [5] | IC50 [6] | IC50 [7] | IC50 [8] | IC50 [9] | Ki [9] | IC50 [10] | Ki [10]

Cn1cnc([N+](=O)[O-])c1Sc1ncnc2nc[nH]c12 [AZATHIOPRINE]
Not Active: IC50 [1] | Ki [1] | IC50 (Adenosine receptor A2a) | IC50 (Substance-P receptor) | IC50 [2] | Ki [2] | IC50 [3] | Ki [3] | IC50 [4] | Ki [4] | IC50 (Glucocorticoid receptor) | IC50 [5] | IC50 [6] | IC50 [7] | IC50 [8] | IC50 [9] | Ki [9] | IC50 [10] | Ki [10]

CC1(C)S[C@@H]2[C@H](NC(=O)[C@H](NC(=O)N3CCNC3=O)c3ccccc3)C(=O)N2[C@H]1C(=O)O [AZLOCILLIN]
Not Active: IC50 [1] | Ki [1] | IC50 (Adenosine receptor A2a) | IC50 (Substance-P receptor) | IC50 [2] | Ki [2] | IC50 [3] | Ki [3] | IC50 [4] | Ki [4] | IC50 (Glucocorticoid receptor) | IC50 [5] | IC50 [6] | IC50 [7] | IC50 [8] | IC50 [9] | Ki [9] | IC50 [10] | Ki [10]

CCOC(=O)c1ccc(N)cc1 [BENZOCAINE]
Not Active: IC50 [1] | Ki [1] | IC50 (Adenosine receptor A2a) | IC50 (Substance-P receptor) | IC50 [2] | Ki [2] | IC50 [3] | Ki [3] | IC50 [4] | Ki [4] | IC50 (Glucocorticoid receptor) | IC50 [5] | IC50 [6] | IC50 [7] | IC50 [8] | IC50 [9] | Ki [9] | IC50 [10] | Ki [10]
